# How the values were obtained:
# Apo E knockout mice [1] = experiment: Quantification of aortic sinus lesions (oil red O staining of aortic root); type: in vivo, mouse; conditions: rosuvastatin 20 mg/kg/day; its own control 0.36 ± 0.10
# From the text: Thirty-four male Apo E knockout mice were obtained from Jackson Laboratories (Bar Harbor, Me.). The mice were fed with normal mouse chow until 2 months of age and randomly allocated into two groups (n=17 each). One group of mice was then fed a control Western high-fat diet (F5722, fat 20%, cholesterol 2.1 gm/kg). […] CCO-Oil has approximately 20 wt % C16:1n7-palmitoleate. The consistency of the food was a paste; it appeared to be enticing to the mice and well tolerated. Water was freely available throughout the course of the study. Blood samples were obtained 8 and 12 weeks after initiation of the diet. At 12 weeks, all mice were sacrificed by intraperitoneal injection of ketamine/xylazine. […] Data were presented as mean±SD. Statistical analysis was performed with t-test. P<0.05 indicates statistical significance.
# The surface area of aorta occupied by atherosclerotic lesions was quantified by en face oil red 0 staining, using an approach modified from Palinski et al. After mice were killed, a catheter was inserted into the left ventricle and the arterial tree was perfused with PBS (25 ml), followed by 4% buffered formaldehyde (20 ml, PH 7.4) at a pressure of 100 mm Hg. Under a microscope (Leica M500) the entire aorta attached to the heart was dissected and the adventitial fat was dissected. […]
# Apo E knockout mice [2] = experiment: Quantification of aorta lesions (en face Sudan IV staining); type: in vivo, mouse; conditions: rosuvastatin 20 mg/kg/day; its own control 21.9 ± 2.9, P<0.05
# From the text: Thirty-four male Apo E knockout mice were obtained from Jackson Laboratories (Bar Harbor, Me.). The mice were fed with normal mouse chow until 2 months of age and randomly allocated into two groups (n=17 each). One group of mice was then fed a control Western high-fat diet (F5722, fat 20%, cholesterol 2.1 gm/kg). The other group was fed a composition comprising C16:1n7-palmitoleate (CCO-Oil 20 wt %, cholesterol 2.1 gm/kg). […] Water was freely available throughout the course of the study. Blood samples were obtained 8 and 12 weeks after initiation of the diet. At 12 weeks, all mice were sacrificed by intraperitoneal injection of ketamine/xylazine. […] Data were presented as mean±SD. Statistical analysis was performed with t-test. P<0.05 indicates statistical significance.
# The surface area of aorta occupied by atherosclerotic lesions was quantified by en face oil red 0 staining, using an approach modified from Palinski et al. After mice were killed, a catheter was inserted into the left ventricle and the arterial tree was perfused with PBS (25 ml), followed by 4% buffered formaldehyde (20 ml, PH 7.4) at a pressure of 100 mm Hg. Under a microscope (Leica M500) the entire aorta attached to the heart was dissected and the adventitial fat was dissected. The ascending aorta was transected, and the heart was placed in histo-choice for assessment of aortic root atherosclerosis. […]
compound,measurement,setting,value
CC(C)c1nc(N(C)S(C)(=O)=O)nc(-c2ccc(F)cc2)c1/C=C/[C@@H](O)C[C@@H](O)CC(=O)O [Rosuvastatin],Aortic sinus lesion size,Apo E knockout mice [1],0.35 ± 0.10 mm^2
same,Aortic lesion (% of surface area),Apo E knockout mice [2],11.9 ± 1.9 %

# From patent US11419840B2, “Compositions and methods comprising C16:1N7-palmitoleate” (Tersus Life Sciences, LLC, priority 2011, dated 2022)
